The target of one experiment is T1, human GluN1^FA,TL/GluN3A receptors (Homo sapiens, UniProt Q8TCU5).
T1 construct: Human GluN3A (NP_597702.2) and rat GluN3B (NP_579842.2) were synthesized and subcloned into SP6 plasmids; expressed in transfected cells; host or cells: Xenopus laevis oocytes, cRNA injection (GluN1:GluN3 1:3)
T1 sequence (Q8TCU5 24-1115, other chains not shown): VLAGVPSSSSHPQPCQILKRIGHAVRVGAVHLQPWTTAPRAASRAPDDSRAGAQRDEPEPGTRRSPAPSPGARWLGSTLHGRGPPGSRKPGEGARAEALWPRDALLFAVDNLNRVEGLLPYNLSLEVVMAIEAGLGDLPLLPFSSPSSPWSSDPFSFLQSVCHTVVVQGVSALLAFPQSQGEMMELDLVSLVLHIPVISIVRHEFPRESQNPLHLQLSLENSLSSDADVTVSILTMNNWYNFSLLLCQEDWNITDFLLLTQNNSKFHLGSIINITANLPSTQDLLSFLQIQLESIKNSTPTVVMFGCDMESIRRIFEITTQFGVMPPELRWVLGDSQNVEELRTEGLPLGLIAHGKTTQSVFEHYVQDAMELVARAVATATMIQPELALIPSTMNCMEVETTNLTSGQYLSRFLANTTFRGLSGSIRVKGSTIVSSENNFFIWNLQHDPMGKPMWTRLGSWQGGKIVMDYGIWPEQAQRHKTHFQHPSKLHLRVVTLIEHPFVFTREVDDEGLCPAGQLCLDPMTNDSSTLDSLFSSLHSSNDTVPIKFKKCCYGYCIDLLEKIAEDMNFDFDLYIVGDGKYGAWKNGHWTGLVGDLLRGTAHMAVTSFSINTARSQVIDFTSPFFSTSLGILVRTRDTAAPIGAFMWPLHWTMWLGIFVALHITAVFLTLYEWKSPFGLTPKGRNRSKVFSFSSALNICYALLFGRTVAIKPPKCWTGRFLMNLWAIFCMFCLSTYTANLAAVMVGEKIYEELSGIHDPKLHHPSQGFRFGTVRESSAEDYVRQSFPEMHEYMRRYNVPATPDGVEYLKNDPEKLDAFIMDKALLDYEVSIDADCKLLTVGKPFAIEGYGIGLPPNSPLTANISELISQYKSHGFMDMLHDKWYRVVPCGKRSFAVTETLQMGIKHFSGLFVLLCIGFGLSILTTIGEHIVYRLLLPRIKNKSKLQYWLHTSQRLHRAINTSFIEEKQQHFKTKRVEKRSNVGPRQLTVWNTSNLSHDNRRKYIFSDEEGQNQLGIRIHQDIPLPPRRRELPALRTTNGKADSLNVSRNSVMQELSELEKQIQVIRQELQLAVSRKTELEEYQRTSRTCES
The experiment in a line: Two-electrode voltage-clamp recordings of GluN1^FA,TL/GluN3A receptors in Xenopus oocytes. In kind it is cell-based. The conditions noted are these: hGluN1^FA,TL/hGluN3A; read-out: IC50. The text has this: cDNA encoding human wild-type (WT) GluN1-1a (GenBank accession numbers NP_015566, hereafter GluN1) and rat GluN1-1a (NP_058706.1) were synthesized and subcloned into pGEMHE plasmid; some experiments used the rat splice variant GluN1-4a (NP_001257531.1). Human GluN3A (NP_597702.2) and rat GluN3B (NP_579842.2) were synthesized and subcloned into SP6 plasmids. For most experiments, human GluN1 was co-expressed with human GluN3A, except for mutagenesis experiments where rat GluN1 was co-expressed with human GluN3A. Rat GluN1-4a was always expressed with rat GluN3B.
Defolliculated Xenopus laevis oocytes (stage V-VI) were obtained from Ecocyte BioScience (Austin, Texas), or prepared from commercially available Xenopus ovaries (Xenopus 1, Dexter, MI) as previously described (Hansen, et al., Mol. Pharmacol., 2013). A Drummond Nanoject II (Broomall, PA) was used to inject oocytes with cRNAs encoding GluN1 and GluN3 at a 1:3 ratio in RNase-free water. The cRNA was diluted as needed to give responses with amplitudes ranging between 200-2000 nA (0.2-10 ng total cRNA). Following cRNA injection, the oocytes were stored at 15-19° C. in Barth's solution that contained (in mM) 88 NaCl, 2.4 NaHCO3, 1 KCl, 0.33 Ca(NO3)2, 0.41 CaCl2), 0.82 MgSO4, and 5 Tris-HCl (pH 7.4 with NaOH), supplemented with 1 μg/ml streptomycin (Invitrogen, Carlsbad, CA) and 100 μg/ml gentamicin (Fisher Scientific, Pittsburgh, PA). Recordings were performed 2-5 days following cRNA microinjection at room temperature (23° C.) using a two-electrode voltage-clamp amplifier (OC725, Warner Instrument, Hamilton, CT). The signal was low-pass filtered at 10-20 Hz (4-pole, −3 dB Bessel) and digitized at the Nyquist rate using PCI-6025E or USB-6212 BNC data acquisition boards (National Instruments, Austin, TX) using EasyOocyte (http://www.easyoocyte.io/). Oocytes were placed in a custom-made chamber and continuously perfused (2.5 ml/min) with oocyte recording solution containing (in mM) 90 NaCl, 1 KCl, 10 HEPES, 0.5-1.0 BaCl2, and 0.01 EDTA (pH 7.4 with NaOH). Solutions were applied by gravity, and solution exchange was controlled through a rotary valve (Hamilton, Reno, NV). Recording electrodes were filled with 0.3-3.0 M KCl, and current responses were recorded at a holding potential of −40 mV.
Response (%)=(100−minimum)/(1+([concentration]/IC50)^nH)+minimum (2) • where nH is the Hill slope, IC50 is the concentration that produces a half-maximal effect, and minimum is the degree of residual inhibition at a saturating concentration of the negative allosteric modulator.
The afore-referenced compounds were screened in the same assay as EU1180-438 to determine their effects on hGluN1^FA,TL/hGluN3A receptors. Selected compounds that inhibited by more than 20% at the concentration at which they were initially evaluated (either 10 or 30 μM) were analyzed further, and a dose-response curve was generated to determine their IC50 values.
Background: Two-electrode voltage clamp holds a large cell at a set potential and records current.
On to `CCOc1ccc(OCC(c2ccc(OC(C)C)cc2)N2Cc3ccc(F)cc3C2=O)cc1` (centres unmarked) [EU1180-590, 6-fluoro-2-(2-(4-ethoxyphenoxy)-1-(4-isopropoxyphenyl)ethyl)isoindolin-1-one], for which the IC50 amounted to 15.7 µM.

Staying with this experiment, now noted: read-out: hGluN1^FA,TL/hGluN3A (100 × Idrug/Icontrol at 30 μM drug).
With `CCOc1ccc(OCC(c2ccc(OC(C)C)cc2)N2Cc3ccc(Cl)cc3C2=O)cc1` (centres unmarked) [EU1180-588, 6-chloro-2-(2-(4-ethoxyphenoxy)-1-(4-isopropoxyphenyl)ethyl)isoindolin-1-one], the remaining activity at 30 µM is 67%.

As for `COc1ccc(OCC(c2ccc(OC)cc2)N2Cc3ccc(C(F)(F)F)cc3C2=O)cc1` (centres unmarked) [EU1180-518, 2-(2-(4-Methoxyphenoxy)-1-(4-methoxyphenyl)ethyl)-6-(trifluoromethyl)isoindolin-1-one], the remaining activity at 30 µM stood at 86%.

In the case of `COc1ccc(OCC(c2c(F)cc(OC)cc2F)N2Cc3ccc(Cl)cc3C2=O)cc1` (centres unmarked) [EU1180-548, 6-Chloro-2-(1-(2,6-difluoro-4-methoxyphenyl)-2-(4-methoxyphenoxy)ethyl)isoindolin-1-one], the remaining activity at 30 µM is 90%.

Consider `COc1ccc(OCC(c2c(F)cc(OC)cc2F)N2Cc3cc(Cl)ccc3C2=O)cc1` (centres unmarked) [EU1180-547, 5-Chloro-2-(1-(2,6-difluoro-4-methoxyphenyl)-2-(4-methoxyphenoxy)ethyl)isoindolin-1-one], for which the remaining activity at 30 µM was 98%.

In the case of `CC(C)Oc1ccc(C(COc2ccc(OC(F)(F)F)cc2)N2Cc3ccc(F)cc3C2=O)cc1` (centres unmarked) [EU1180-542, 6-fluoro-2-(1-(4-isopropoxyphenyl)-2-(4-(trifluoromethoxy)phenoxy)ethyl)isoindolin-1-one], the remaining activity at 30 µM turned out to be 98%.

For the compound `CCOc1ccc(OCC(c2ccc(OC(C)C)cc2)N2Cc3ccc(C(F)(F)F)cc3C2=O)cc1` (centres unmarked) [EU1180-587, 2-(2-(4-ethoxyphenoxy)-1-(4-isopropoxyphenyl)ethyl)-6-(trifluoromethyl)isoindolin-1-one], the remaining activity at 30 µM worked out at 98%.

On to `CC(C)Oc1ccc(C(COc2ccc(C(F)(F)F)cc2)N2Cc3ccc(Br)cc3C2=O)cc1` (centres unmarked) [EU1180-577, 6-bromo-2-(1-(4-isopropoxyphenyl)-2-(4-(trifluoromethyl)phenoxy)ethyl)isoindolin-1-one], for which the remaining activity at 30 µM was 108%.

Take `COc1ccc(OCC(c2ccc(OC(C)C)cc2)N2Cc3cc(F)ccc3C2=O)cc1` (centres unmarked) [EU1180-561, 5-fluoro-2-(1-(4-isopropoxyphenyl)-2-(4-methoxyphenoxy)ethyl)isoindolin-1-one]: the remaining activity at 30 µM is 88%.

For the compound `COc1ccc(OCC(c2ccc(OC)cc2)N2Cc3cc(Br)ccc3C2=O)cc1` (centres unmarked) [EU1180-519, 5-Bromo-2-(2-(4-methoxyphenoxy)-1-(4-methoxyphenyl)ethyl)isoindolin-1-one], the remaining activity at 30 µM is 90%.

`CCOc1ccc(OCC(c2ccc(OC(C)C)cc2)N2Cc3ccc(F)cc3C2=O)cc1` (centres unmarked) [EU1180-590, 6-fluoro-2-(2-(4-ethoxyphenoxy)-1-(4-isopropoxyphenyl)ethyl)isoindolin-1-one]: the remaining activity at 30 µM is 35%.

Consider `COc1ccc(OCC(c2ccc(OC)c(OC)c2)N2Cc3ccc(Cl)cc3C2=O)cc1` (centres unmarked) [EU1180-525, 6-Chloro-2-(1-(3,4-dimethoxyphenyl)-2-(4-methoxyphenoxy)ethyl)isoindolin-1-one], for which the remaining activity at 30 µM stood at 94%.

Turning to `COc1ccc(C(COc2cccc(C)n2)N2Cc3ccc(Cl)cc3C2=O)cc1` (centres unmarked) [EU1180-595, 6-Chloro-2-(1-(4-methoxyphenyl)-2-((6-methylpyridin-2-yl)oxy)ethyl)isoindolin-1-one], the remaining activity at 30 µM worked out at 75%.

Turning to `CC(C)Oc1ccc(C(COc2ccc(C(F)(F)F)cc2)N2Cc3ccccc3C2=O)cc1` (centres unmarked) [EU1180-571, 2-(1-(4-isopropoxyphenyl)-2-(4-(trifluoromethyl)phenoxy)ethyl)isoindolin-1-one], the remaining activity at 30 µM came out at 94%.

For the compound `COc1ccc(OCC(c2ccc(OC)c(OC)c2)N2Cc3ccc(C(F)(F)F)cc3C2=O)cc1` (centres unmarked) [EU1180-523, 2-(1-(3,4-Dimethoxyphenyl)-2-(4-methoxyphenoxy)ethyl)-6-(trifluoromethyl)isoindolin-1-one], the remaining activity at 30 µM came out at 104%.

Consider `COc1ccc(C(COc2cccc(C)n2)N2Cc3cc(Cl)ccc3C2=O)cc1` (centres unmarked) [EU1180-594, 5-Chloro-2-(1-(4-methoxyphenyl)-2-((6-methylpyridin-2-yl)oxy)ethyl)isoindolin-1-one], for which the remaining activity at 30 µM amounted to 73%.

On to `COc1ccc(OCC(c2ccc(OC(C)C)cc2)N2Cc3ccc(Br)cc3C2=O)cc1` (centres unmarked) [EU1180-562, 6-bromo-2-(1-(4-isopropoxyphenyl)-2-(4-methoxyphenoxy)ethyl)isoindolin-1-one], for which the remaining activity at 30 µM is 98%.

Turning to `COc1ccc(OCC(c2ccc(OC)c(OC)c2)N2Cc3cc(Br)ccc3C2=O)cc1` (centres unmarked) [EU1180-526, 5-Bromo-2-(1-(3,4-dimethoxyphenyl)-2-(4-methoxyphenoxy)ethyl)isoindolin-1-one], the remaining activity at 30 µM came to 101%.

Turning to `COc1ccc(C(COc2cccc(C)n2)N2Cc3ccc(C(F)(F)F)cc3C2=O)cc1` (centres unmarked) [EU1180-593, 2-(1-(4-Methoxyphenyl)-2-((6-methylpyridin-2-yl)oxy)ethyl)-6-(trifluoromethyl)isoindolin-1-one], the remaining activity at 30 µM is 83%.

As to `COc1ccc(OCC(c2ccc(OC)cc2F)N2Cc3ccc(C(F)(F)F)cc3C2=O)cc1` (centres unmarked) [EU1180-531, 2-(1-(2-Fluoro-4-methoxyphenyl)-2-(4-methoxyphenoxy)ethyl)-6-(trifluoromethyl)isoindolin-1-one], the remaining activity at 30 µM worked out at 99%.

On to `CC(C)Oc1ccc(C(COc2ccc(OC(F)(F)F)cc2)N2Cc3cc(Br)ccc3C2=O)cc1` (centres unmarked) [EU1180-554, 5-bromo-2-(1-(4-isopropoxyphenyl)-2-(4-(trifluoromethoxy)phenoxy)ethyl)isoindolin-1-one], for which the remaining activity at 30 µM worked out at 101%.

For `COc1ccc(OCC(c2ccc(OC(C)C)cc2)N2Cc3ccc(C(F)(F)F)cc3C2=O)cc1` (centres unmarked) [EU1180-558, 2-(1-(4-isopropoxyphenyl)-2-(4-methoxyphenoxy)ethyl)-6-(trifluoromethyl)isoindolin-1-one], the remaining activity at 30 µM was 98%.

On to `COc1ccc(C(COc2cccc(C)n2)N2Cc3ccccc3C2=O)c(F)c1` (centres unmarked) [EU1180-600, 2-(1-(2-Fluoro-4-methoxyphenyl)-2-((6-methylpyridin-2-yl)oxy)ethyl)isoindolin-1-one], for which the remaining activity at 30 µM amounted to 87%.

As for `CC(C)Oc1ccc(C(COc2ccc(OC(F)(F)F)cc2)N2Cc3ccc(Cl)cc3C2=O)cc1` (centres unmarked) [EU1180-540, 6-chloro-2-(1-(4-isopropoxyphenyl)-2-(4-(trifluoromethoxy)phenoxy)ethyl)isoindolin-1-one], the remaining activity at 30 µM amounted to 100%.

With `COc1ccc(OCC(c2ccc(OC)c(OC)c2)N2Cc3ccc(F)cc3C2=O)cc1` (centres unmarked) [EU1180-529, 2-(1-(3,4-Dimethoxyphenyl)-2-(4-methoxyphenoxy)ethyl)-6-fluoroisoindolin-1-one], the remaining activity at 30 µM is 84%.

`COc1cc(F)c(C(COc2cccc(C)n2)N2Cc3ccc(F)cc3C2=O)c(F)c1` (centres unmarked) [EU1180-614, 2-(1-(2,6-Difluoro-4-methoxyphenyl)-2-((6-methylpyridin-2-yl)oxy)ethyl)-6-fluoroisoindolin-1-one]: the remaining activity at 30 µM was found to be 57%.

For `COc1ccc(C(COc2cccc(C)n2)N2Cc3ccc(Br)cc3C2=O)c(F)c1` (centres unmarked) [EU1180-607, 6-Bromo-2-(1-(2-fluoro-4-methoxyphenyl)-2-((6-methylpyridin-2-yl)oxy)ethyl)isoindolin-1-one], the remaining activity at 30 µM amounted to 62%.

On to `COc1ccc(OCC(c2c(F)cc(OC)cc2F)N2Cc3ccc(C(F)(F)F)cc3C2=O)cc1` (centres unmarked) [EU1180-546, 2-(1-(2,6-Difluoro-4-methoxyphenyl)-2-(4-methoxyphenoxy)ethyl)-6-(trifluoromethyl)isoindolin-1-one], for which the remaining activity at 30 µM worked out at 96%.

With `COc1ccc(OCC(c2ccc(OC)cc2)N2Cc3cc(F)ccc3C2=O)cc1` (centres unmarked) [EU1180-521, 5-Fluoro-2-(2-(4-methoxyphenoxy)-1-(4-methoxyphenyl)ethyl)isoindolin-1-one], the remaining activity at 30 µM stood at 60%.

A word on the IC50: it is the concentration at which inhibition is half-maximal.

The values above are taken from patent US20230339854A1, “Negative Allosteric Modulation of GluN3-Containing N-Methyl-D-Aspartate Receptors” (Emory University, priority 2020, published 2023).
